Assays:
Assay type in all cases: in vivo
[1] = system: Amaranthus retroflexus (AMARE); experiment: Herbicidal post-emergence action; details: 1280 g/ha, assessed after ca. 3 weeks
Outline: (§1)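 Seeds were sown in sandy loam and grown under controlled greenhouse conditions. At the single-leaf stage (2 to 3 weeks), green parts were sprayed with the aqueous formulated compound (0.5% additive, 600 l water/ha, 1280 or 320 g/ha). About 3 weeks later, effect was rated visually in percent against untreated plants.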

[2] = system: Echinochloa crus-galli (ECHCG); experiment: Herbicidal post-emergence action; details: 1280 g/ha, assessed after ca. 3 weeks
Outline: as §1

[3] = system: Lolium multiflorum (LOLMU); experiment: Herbicidal post-emergence action; details: 1280 g/ha, assessed after ca. 3 weeks
Outline: as §1

[4] = system: Alopecurus myosuroides (ALOMY); experiment: Herbicidal post-emergence action; details: 1280 g/ha, assessed after ca. 3 weeks
Outline: as §1

[5] = system: Lolium rigidum (LOLRI); experiment: Herbicidal post-emergence action; details: 320 g/ha, assessed after ca. 3 weeks
Outline: as §1

[6] = system: Digitaria sanguinalis (DIGSA); experiment: Herbicidal post-emergence action; details: 320 g/ha, assessed after ca. 3 weeks
Outline: as §1

[7] = system: Setaria viridis (SETVI); experiment: Herbicidal post-emergence action; details: 1280 g/ha, assessed after ca. 3 weeks
Outline: as §1

[8] = system: Avena fatua (AVEFA); experiment: Herbicidal post-emergence action; details: 1280 g/ha, assessed after ca. 3 weeks
Outline: as §1

[9] = system: Brassica napus (BRSNW); experiment: Post-emergence effects on crop plants; details: crop plant Brassica napus (BRSNW)
Description: (§2) Seeds of mono- and dicotyledonous weed plants and crop plants were sown, in plastic or organic planting pots, in sandy loam, covered with soil and grown in a greenhouse under controlled growth conditions. 2 to 3 weeks after sowing, the test plants were sprayed in the single-leaf stage. The compounds according to the invention, formulated in form of wettable powders (WP) or as emulsifiable concentrates (EC), were sprayed onto the green plant parts as aqueous suspension or emulsion, with the addition of 0.5% of an additive, at an application rate of 600 1 of water/ha (converted). The test plants were placed in the greenhouse for ca. 3 weeks under optimum growth conditions, and then the effect of the preparations was assessed visually in comparison with untreated controls (herbicidal effect in percent (%): 100% effect=plants have died off, 0% effect=as control plants).
(§3) Tables D1 to D3 below show the effects of selected compounds of the general formula (I) according to table 1 on various crop plants and an application rate corresponding to 320 g/ha or below obtained by the experimental procedure mentioned above in biology section B.

[10] = system: Echinochloa crus-galli (ECHCG); experiment: Herbicidal pre-emergence action; details: 1280 g/ha, graded after ca. 3 weeks
Outline: (§4)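 Seeds sown in sandy loam and covered with soil; WP- or EC-formulated compounds applied to the covering soil surface as aqueous suspension/emulsion with 0.5% additive at 600 l water/ha, rates of 1280 g/ha or lower. Greenhouse growth; visual damage scored after ca. 3 weeks versus untreated controls (0–100%).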

[11] = system: Polygonum convolvulus (POLCO); experiment: Herbicidal pre-emergence action; details: graded after ca. 3 weeks
Outline: as §4

[12] = system: Lolium multiflorum (LOLMU); experiment: Herbicidal pre-emergence action; details: 1280 g/ha, graded after ca. 3 weeks
Outline: as §4

[13] = system: Veronica persica (VERPE); experiment: Herbicidal pre-emergence action; details: 1280 g/ha, graded after ca. 3 weeks
Outline: as §4

[14] = system: Alopecurus myosuroides (ALOMY); experiment: Herbicidal pre-emergence action; details: graded after ca. 3 weeks
Outline: as §4

[15] = system: Lolium rigidum (LOLRI); experiment: Herbicidal pre-emergence action; details: 320 g/ha, graded after ca. 3 weeks
Outline: as §4

[16] = system: Digitaria sanguinalis (DIGSA); experiment: Herbicidal pre-emergence action; details: 320 g/ha, graded after ca. 3 weeks
Outline: as §4

[17] = system: Cyperus esculentus (CYPES); experiment: Herbicidal pre-emergence action; details: 1280 g/ha, graded after ca. 3 weeks
Outline: as §4

[18] = system: Setaria viridis (SETVI); experiment: Herbicidal pre-emergence action; details: graded after ca. 3 weeks
Outline: as §4

[19] = system: Avena fatua (AVEFA); experiment: Herbicidal pre-emergence action; details: graded after ca. 3 weeks
Outline: as §4

[20] = system: Stellaria media (STEME); experiment: Herbicidal post-emergence action; details: 1280 g/ha, assessed after ca. 3 weeks
Outline: as §1

[21] = system: Polygonum convolvulus (POLCO); experiment: Herbicidal post-emergence action; details: 1280 g/ha, assessed after ca. 3 weeks
Outline: as §1

[22] = system: Glycine max (GLXMA); experiment: Post-emergence effects on crop plants; details: 320 g/ha, crop plant
Description: as §2, §3

[23] = system: Zea Mays (ZEAMX); experiment: Post-emergence effects on crop plants; details: crop plant
Description: as §2, §3

[24] = system: Viola tricolor (VIOTR); experiment: Herbicidal pre-emergence action; details: 320 g/ha, graded after ca. 3 weeks
Outline: as §4

[25] = system: Glycine max (GLXMA); experiment: Pre-emergence effects on crop plants; details: 320 g/ha, crop plant
Description: (§5) Seeds of mono- and dicotyledonous weed plants and crop plants were sown, in plastic or organic planting pots, in sandy loam and covered with soil. The compounds according to the invention, formulated in the form of wettable powders (WP) or as emulsifiable concentrates (EC), were applied to the surface of the covering soil as aqueous suspension or emulsion, with the addition of 0.5% of an additive, at an application rate of 600 1 of water/ha (converted).
(§6) Following treatment, the pots were placed in a greenhouse and kept under optimum growth conditions for the test plants. The visual grading of the damage to the test plants was carried out after ca. 3 weeks in comparison to untreated controls (herbicidal effect in percent (%): 100% effect=plants have died off, 0% effect=as control plants).
(§7) Tables C1 to C3 below show the effects of selected compounds of the general formula (I) according to table 1 on various crop plants and an application rate corresponding to 320 g/ha or below obtained by the experimental procedure mentioned above in biology section A.

[26] = system: Brassica napus (BRSNW); experiment: Pre-emergence effects on crop plants; details: 320 g/ha, crop plant
Description: as §5, §6, §7

[27] = system: Zea Mays (ZEAMX); experiment: Pre-emergence effects on crop plants; details: crop plant
Description: as §5, §6, §7

[28] = system: Pharbitis purpurea (PHBPU); experiment: Herbicidal pre-emergence action; details: 1280 g/ha, graded after ca. 3 weeks
Outline: as §4

[29] = system: Cyperus esculentus (CYPES); experiment: Herbicidal post-emergence action; details: 1280 g/ha, assessed after ca. 3 weeks
Outline: as §1

[30] = system: Poa annua (POAAN); experiment: Herbicidal post-emergence action; details: 1280 g/ha, assessed after ca. 3 weeks
Outline: as §1

[31] = system: Poa annua (POAAN); experiment: Herbicidal pre-emergence action; details: 1280 g/ha, graded after ca. 3 weeks
Outline: as §4

SMILES	Post-emergence activity against ECHCG [2] [%]	Post-emergence activity against LOLMU [3] [%]	Post-emergence activity against LOLRI [5] [%]	Post-emergence activity against DIGSA [6] [%]	Post-emergence activity against SETVI [7] [%]	Post-emergence activity against AVEFA [8] [%]	Pre-emergence activity against ECHCG [10] [%]	Pre-emergence activity against LOLMU [12] [%]	Pre-emergence activity against ALOMY ([14]; 1280 g/ha) [%]	Pre-emergence activity against LOLRI [15] [%]	Pre-emergence activity against DIGSA [16] [%]	Pre-emergence activity against AVEFA ([19]; 1280 g/ha) [%]	other results
O=C(CC1CCC(=O)N1Cc1cccc(F)c1F)NC1CCCc2ccccc21 (mixture of isomers) [Example I-066]													Post-emergence activity against AMARE [1]: 100%
O=C(O)CC1CCC(=O)N1Cc1cccc(Cl)c1F (racemic) [Example I-001, 2-[1-[(3-chloro-2-fluorophenyl)methyl]-5-oxo-pyrrolidin-2-yl]acetic acid]	90	100	80	90	80	90	80	90	90	90	100	100	Post-emergence activity against ALOMY [4]: 90%; post-emergence activity against BRSNW ([9]; application rate 320 g/ha): 0%; Pre-emergence activity against POLCO ([11]; 320 g/ha): 80%; Pre-emergence activity against VERPE [13]: 90%; Pre-emergence activity against ALOMY ([14]; 320 g/ha): 80%; Pre-emergence activity against CYPES [17]: 80%; Pre-emergence activity against SETVI ([18]; 320 g/ha): 100%; Pre-emergence activity against AVEFA ([19]; 320 g/ha): 100%
COCCOC(=O)CC1CCC(=O)N1Cc1cccc(F)c1F (racemic) [Example I-015]	100	80	80	80	90	90	90	80	90	80	100	100	Post-emergence activity against STEME [20]: 90%; Post-emergence activity against POLCO [21]: 80%; post-emergence activity against GLXMA (crop damage) [22]: 0%; post-emergence activity against BRSNW ([9]; application rate 80 g/ha): 0%; post-emergence activity against ZEAMX (crop damage) ([23]; 320 g/ha): 0%; Pre-emergence activity against POLCO ([11]; 1280 g/ha): 80%; Pre-emergence activity against VIOTR [24]: 90%; Pre-emergence activity against CYPES [17]: 80%; Pre-emergence activity against SETVI ([18]; 1280 g/ha): 90%; pre-emergence activity against GLXMA (crop damage) [25]: 0%; pre-emergence activity against BRSNW (crop damage) [26]: 20%; pre-emergence activity against ZEAMX (crop damage) ([27]; 320 g/ha): 0%
O=C(CC1CCC(=O)N1Cc1cccc(F)c1F)NCC(F)(F)F (racemic) [Example I-090]													Pre-emergence activity against PHBPU [28]: 100%
CC1(C)CCC(=O)C(C(=O)CC2CCC(=O)N2Cc2cccc(F)c2F)C1=O (racemic) [Example I-178]	90					80	90		90			90	Post-emergence activity against STEME [20]: 80%; Post-emergence activity against AMARE [1]: 100%; Pre-emergence activity against POLCO ([11]; 1280 g/ha): 90%; Pre-emergence activity against PHBPU [28]: 90%
O=C(O)CC1CCC(=O)N1Cc1cccc(F)c1F (single isomer, unassigned) [Example I-014]	90	80	80	80	90	80	80	90	100	90	100	100	Post-emergence activity against ALOMY [4]: 80%; Post-emergence activity against CYPES [29]: 80%; post-emergence activity against GLXMA (crop damage) [22]: 0%; post-emergence activity against BRSNW ([9]; application rate 80 g/ha): 0%; post-emergence activity against ZEAMX (crop damage) ([23]; 80 g/ha): 0%; Pre-emergence activity against POLCO ([11]; 320 g/ha): 90%; Pre-emergence activity against VIOTR [24]: 90%; Pre-emergence activity against SETVI ([18]; 320 g/ha): 90%; pre-emergence activity against GLXMA (crop damage) [25]: 0%; pre-emergence activity against BRSNW (crop damage) [26]: 0%; pre-emergence activity against ZEAMX (crop damage) ([27]; 80 g/ha): 0%
O=C(CC1CCC(=O)N1Cc1cccc(F)c1F)Nc1ncns1 (centres unmarked) [Example I-193, 2-[1-[(2,3-difluorophenyl)methyl]-5-oxo-pyrrolidin-2-yl]-N-(1,2,4-thiadiazol-5-yl)acetamide]													Post-emergence activity against POAAN [30]: 90%; Pre-emergence activity against POAAN [31]: 90%

Reference: patent US20240199542A1, “SUBSTITUTED PYRROLIDIN-2-ONES, SALTS THEREOF AND THEIR USE AS HERBICIDALLY ACTIVE SUBSTANCES” (Bayer Aktiengesellschaft, priority 2021, published 2024)
